# According to US12655116B2, “Substituted isophthalic acid diamides” (Bayer Aktiengesellschaft, priority 2020, dated 2026):
# How the values were obtained:
# [1] = tested on: SETVI; assay: Post-emergence herbicidal action against SETVI; format: in vivo, Setaria viridis
# Method in brief: (§1)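 A WP or EC formulation diluted in water with 0.2% wetting agent was sprayed at 600 to 800 l/ha onto one-leaf-stage plants grown in sandy loam. About 3 weeks later, action was rated visually in percent, 100% being dead plants.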
# [2] = tested on: PHBPU; assay: Post-emergence herbicidal action against PHBPU; format: in vivo, Pharbitis purpurea; conditions: dosage 20 g/ha
# Method in brief: as §1
# [3] = tested on: AVEFA; assay: Pre-emergence herbicidal action against AVEFA; format: in vivo, Avena fatua; conditions: 80 g/ha, pre-emergence
# Method in brief: (§2)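 Greenhouse pots of sandy loam held seeds covered with soil, onto which the compound was applied before emergence. An aqueous suspension or emulsion of WP or EC was used at 600 to 800 l/ha with 0.2% wetting agent. Percent damage was judged visually at 3 weeks.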
# [4] = tested on: STEME; assay: Pre-emergence herbicidal action against STEME; format: in vivo, Stellaria media
# Method in brief: as §2
# [5] = tested on: DIGSA; assay: Pre-emergence herbicidal action against DIGSA; format: in vivo, Digitaria sanguinalis
# Method in brief: as §2
# [6] = tested on: AVEFA; assay: Post-emergence herbicidal action against AVEFA; format: in vivo, Avena fatua; conditions: 20 g/ha, visual assessment about 3 weeks after treatment, 100% = plants have died, 0% = like control plants
# Method in brief: as §1
# [7] = tested on: ECHCG; assay: Post-emergence herbicidal action against ECHCG; format: in vivo, Echinochloa crus-galli
# Method in brief: as §1
# [8] = tested on: MATIN; assay: Pre-emergence herbicidal action against MATIN; format: in vivo, Matricaria inodora
# Method in brief: as §2
# [9] = tested on: VIOTR; assay: Pre-emergence herbicidal action against VIOTR; format: in vivo, Viola tricolor; conditions: dosage 80 g/ha
# Method in brief: as §2
# [10] = tested on: DIGSA; assay: Post-emergence herbicidal action against DIGSA; format: in vivo, Digitaria sanguinalis
# Method in brief: as §1
# [11] = tested on: STEME; assay: Post-emergence herbicidal action against STEME; format: in vivo, Stellaria media
# Method in brief: as §1
# [12] = tested on: SETVI; assay: Pre-emergence herbicidal action against SETVI; format: in vivo, Setaria viridis; conditions: dosage 80 g/ha
# Method in brief: as §2
# [13] = tested on: ABUTH; assay: Post-emergence herbicidal action against ABUTH; format: in vivo, Abutilon theophrasti; conditions: visual assessment about 3 weeks after treatment vs untreated controls
# Method in brief: as §1
# [14] = tested on: AMARE; assay: Post-emergence herbicidal action against AMARE; format: in vivo, Amaranthus retroflexus; conditions: 20 g/ha, visual assessment about 3 weeks after treatment, 100% = plants have died, 0% = like control plants
# Method in brief: as §1
# [15] = tested on: ECHCG; assay: Pre-emergence herbicidal action against ECHCG; format: in vivo, Echinochloa crus-galli; conditions: 80 g/ha
# Method in brief: as §2
# [16] = tested on: POLCO; assay: Pre-emergence herbicidal action against POLCO; format: in vivo, Polygonum convolvulus
# Method in brief: as §2
# [17] = tested on: ABUTH; assay: Pre-emergence herbicidal action against ABUTH; format: in vivo, Abutilon theophrasti
# Method in brief: as §2
# [18] = tested on: AMARE; assay: Pre-emergence herbicidal action against AMARE; format: in vivo, Amaranthus retroflexus
# Method in brief: as §2
# [19] = tested on: VIOTR; assay: Post-emergence herbicidal action against VIOTR; format: in vivo, Viola tricolor; conditions: Viola tricolor, 504 h, 20 g/ha
# Method in brief: as §1
# [20] = tested on: VERPE; assay: Post-emergence herbicidal action against VERPE; format: in vivo, Veronica persica; conditions: Veronica persica, 504 h
# Method in brief: as §1
# [21] = tested on: PHBPU; assay: Pre-emergence herbicidal action against PHBPU; format: in vivo, Pharbitis purpurea; conditions: Ipomoea purpurea, 504 h, dosage 80 g/ha
# Method in brief: as §2
# [22] = tested on: MATIN; assay: Post-emergence herbicidal action against MATIN; format: in vivo, Matricaria inodora; conditions: Tripleurospermum inodorum, 504 h
# Method in brief: as §1
# [23] = tested on: ALOMY; assay: Pre-emergence herbicidal action against ALOMY; format: in vivo, Alopecurus myosuroides; conditions: Alopecurus myosuroides, 504 h; 80 g/ha, pre-emergence, scored visually after 3 weeks vs untreated controls (100% = plants have died, 0% = like control plants)
# Method in brief: as §2
# [24] = 80 g/ha, scored visually after 3 weeks vs untreated controls (100% = plants have died, 0% = like control plants)
compound,measurement,setting,value
CNC(=O)c1c(C(F)F)ccc(C(=O)Nc2nnco2)c1SC [Example 5-74],Post-emergence action against SETVI in %,[1]; dosage 5 g/ha,80%
same,Post-emergence action against SETVI in %,[1]; dosage 20 g/ha,90%
same,Post-emergence action against PHBPU in %,[2],100%
same,Pre-emergence action against AVEFA in %,[3],80%
same,Pre-emergence action against STEME in %,[4]; dosage 20 g/ha,90%
same,Pre-emergence action against STEME in %,[4]; dosage 80 g/ha,100%
same,Pre-emergence action against DIGSA in %,[5]; dosage 20 g/ha,90%
same,Pre-emergence action against DIGSA in %,[5]; dosage 80 g/ha,100%
same,Post-emergence action at 20 g/ha against AVEFA in %,[6],80%
same,Post-emergence action against ECHCG in %,[7]; dosage 5 g/ha,80%
same,Post-emergence action against ECHCG in %,[7]; dosage 20 g/ha,80%
same,Pre-emergence action against MATIN in %,[8]; dosage 20 g/ha,80%
same,Pre-emergence action against MATIN in %,[8]; dosage 80 g/ha,90%
same,Pre-emergence action against VIOTR in %,[9],100%
same,Post-emergence action against DIGSA in %,[10]; 5 g/ha,90%
same,Post-emergence action against DIGSA,[10]; 20 g/ha,90%
same,Post-emergence action against STEME in %,[11]; 20 g/ha,90%
same,Post-emergence action against STEME in %,[11]; dosage 5 g/ha,80%
same,Pre-emergence action against SETVI in %,[12],90%
same,Post-emergence action against ABUTH in %,[13]; dosage 5 g/ha,90%
same,Post-emergence action against ABUTH in %,[13]; dosage 20 g/ha,90%
same,Post-emergence action at 20 g/ha against AMARE in %,[14],100%
same,Pre-emergence action against ECHCG in %,[15],90%
same,Pre-emergence action against POLCO in %,[16]; dosage 20 g/ha,80%
same,Pre-emergence action against POLCO in %,[16]; dosage 80 g/ha,80%
same,Pre-emergence action against ABUTH (herbicidal activity),[17]; [24],100%
same,Pre-emergence action against ABUTH (herbicidal activity in percent),"[17]; dosage 20 g/ha, scored visually after 3 weeks vs untreated controls, 100% = plants have died, 0% = like control plants",80%
same,Pre-emergence action against AMARE in %,"[18]; 20 g/ha, scored visually after 3 weeks vs untreated controls, 100% = plants have died, 0% = like control plants",100%
same,Pre-emergence action against AMARE in %,[18]; [24],100%
CNC(=O)c1c(C(F)F)ccc(C(=O)Nc2nnnn2C)c1C [Example 1-44],pest or weed control at 20 g/ha,"[1]; Setaria viridis, 504 h, dosage 20 g/ha",90%
same,pest or weed control at 20 g/ha,"[2]; Ipomoea purpurea, 504 h",80%
same,pest or weed control at 80 g/ha,"[3]; Avena fatua, 504 h",90%
same,pest or weed control at 20 g/ha,"[4]; Stellaria media, 504 h, dosage 20 g/ha",90%
same,pest or weed control at 80 g/ha,"[4]; Stellaria media, 504 h, dosage 80 g/ha",90%
same,pest or weed control at 20 g/ha,"[5]; Digitaria sanguinalis, 504 h, dosage 20 g/ha",90%
same,pest or weed control at 80 g/ha,"[5]; Digitaria sanguinalis, 504 h, dosage 80 g/ha",100%
same,pest or weed control at 20 g/ha,"[6]; Avena fatua, 504 h",80%
same,pest or weed control at 20 g/ha,"[7]; Echinochloa crus-galli, 504 h, dosage 20 g/ha",80%
same,pest or weed control at 20 g/ha,"[8]; Tripleurospermum inodorum, 504 h, dosage 20 g/ha",90%
same,pest or weed control at 80 g/ha,"[8]; Tripleurospermum inodorum, 504 h, dosage 80 g/ha",90%
same,pest or weed control at 80 g/ha,"[9]; Viola tricolor, 504 h",90%
same,pest or weed control at 5 g/ha,"[10]; Digitaria sanguinalis, 504 h, 5 g/ha",80%
same,pest or weed control at 20 g/ha,"[10]; Digitaria sanguinalis, 504 h, 20 g/ha",90%
same,pest or weed control at 20 g/ha,[19],80%
same,pest or weed control at 20 g/ha,"[11]; Stellaria media, 504 h, 20 g/ha",80%
same,pest or weed control at 5 g/ha,"[11]; Stellaria media, 504 h, dosage 5 g/ha",80%
same,pest or weed control at 80 g/ha,"[12]; Setaria viridis, 504 h",100%
same,pest or weed control at 5 g/ha,[20]; 5 g/ha,80%
same,pest or weed control at 20 g/ha,[20]; 20 g/ha,100%
same,pest or weed control at 80 g/ha,[21],80%
same,pest or weed control at 5 g/ha,"[13]; Abutilon theophrasti, 504 h, dosage 5 g/ha",90%
same,pest or weed control at 20 g/ha,"[13]; Abutilon theophrasti, 504 h, dosage 20 g/ha",100%
same,pest or weed control at 5 g/ha,[22]; dosage 5 g/ha,80%
same,pest or weed control at 20 g/ha,[22]; dosage 20 g/ha,90%
same,pest or weed control at 20 g/ha,"[14]; Amaranthus retroflexus, 504 h",100%
same,pest or weed control at 80 g/ha,"[15]; Echinochloa crus-galli, 504 h",90%
same,pest or weed control at 80 g/ha,[23],90%
same,pest or weed control at 80 g/ha,"[17]; Abutilon theophrasti, 504 h, 80 g/ha, scored visually after 3 weeks vs untreated controls (100% = plants have died, 0% = like control plants)",100%
same,pest or weed control at 20 g/ha,"[17]; Abutilon theophrasti, 504 h, dosage 20 g/ha, scored visually after 3 weeks vs untreated controls, 100% = plants have died, 0% = like control plants, read-out: Pre-emergence action against ABUTH (herbicidal activity in percent)",100%
same,pest or weed control at 20 g/ha,"[18]; Amaranthus retroflexus, 504 h, 20 g/ha, scored visually after 3 weeks vs untreated controls, 100% = plants have died, 0% = like control plants",100%
same,pest or weed control at 80 g/ha,"[18]; Amaranthus retroflexus, 504 h, 80 g/ha, scored visually after 3 weeks vs untreated controls, 100% = plants have died, 0% = like control plants",100%
